The values below come from ChEMBL document CHEMBL1201862, “PubChem BioAssay data set” (2004).

The structures appear in SMILES notation.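 48-hour exposure; five concentrations; linearly interpolated endpoints. GI50: concentration for 50% inhibition of growth.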 Activity calls are given as the source filed them. Rule as the data show it: active = GI50 up to about 1.1 µM and inactive = higher. Some results are limits rather than exact numbers.

Some test systems named below: A549; CCRF-CEM; COLO 205; DMS-114; HCT-15; Malme-3M; NCI-H23; NCI-H522; SF-268; SK-MEL-28; SK-MEL-5; SK-OV-3; SN12C; SR; UO-31; RXF 393; A498; HL-60.
Assay in all cases: inhibition of tumour cell growth, NCI panel, 48 h

With `COc1cc2c(cc1OC)C(=O)C(C1=C(SC(=N)N)C(=O)c3cc(OC)c(OC)cc31)C2` (stereo not given), the GI50 in the test on A549 is > 100 µM (inactive); in the test with CCRF-CEM, > 100 µM (inactive); in the test on COLO 205, > 100 µM (inactive); in the test with DMS-114, > 100 µM (inactive); with HCT-15, > 100 µM; in the test with Malme-3M it was > 100 µM (inactive). Moreover, the GI50 in the test with NCI-H23, in the test with NCI-H522, with SF-268, in the test on SK-MEL-28, in the test with SK-MEL-5 and in the test on SK-OV-3 was > 100 µM (inactive) throughout. Besides, the GI50 in the test on SN12C, in the test on SR and in the test with UO-31 was > 100 µM (inactive) throughout.
For the compound `NC(CCSC(F)F)C(=O)O` (stereo not given), the GI50 in the test on A549 is > 100 µM (inactive); with CCRF-CEM, > 100 µM (inactive); in the test on COLO 205, 92.3 µM (inactive); with DMS-114, 65.3 µM (inactive); in the test with Malme-3M, > 100 µM (inactive); with NCI-H23 it was > 100 µM (inactive). The GI50 in the test with NCI-H522, in the test with RXF 393, with SF-268, in the test with SK-MEL-28, in the test on SK-MEL-5 and in the test on SK-OV-3 was > 100 µM (inactive) each time. The GI50 with SN12C, with SR and in the test with UO-31 was > 100 µM (inactive) throughout.
On to `COC(=O)/C(C#N)=C(\N)C(Cl)(Cl)Cl`, for which the GI50 is 3.4 µM (inactive) in the test with A498; 3.33 µM (inactive) with A549; 0.338 µM (active) in the test on CCRF-CEM; 2.32 µM (inactive) in the test on COLO 205; 3.73 µM (inactive) in the test on DMS-114; 2.2 µM in the test on HCT-15. Moreover, the GI50 in the test on HL-60 was 0.319 µM (active); with NCI-H23, 4.82 µM (inactive); in the test with NCI-H522, 1.9 µM (inactive); in the test with RXF 393 it was 1.61 µM (inactive); with SF-268, 3.92 µM (inactive); with SK-MEL-28, 2 µM (inactive). For the same compound, the GI50 was 1.69 µM (inactive) with SK-MEL-5; 1.81 µM (inactive) with SK-OV-3; 2.87 µM (inactive) in the test with SN12C; 0.449 µM (active) in the test on SR; 27.1 µM (inactive) in the test on UO-31.
As for `CC1OC(OC2CCCc3c(O)c4c(c(O)c32)C(=O)c2ccccc2C4=O)CC(N)C1O` (stereo not given), the GI50 with A498 is 1.7 µM (inactive); with A549, 1.62 µM (inactive); in the test on CCRF-CEM, 1.2 µM (inactive); in the test with COLO 205 it was 1.62 µM (inactive); in the test on DMS-114, 1.69 µM (inactive); with HL-60 it was 1.75 µM (inactive). In addition, the GI50 is 1.82 µM (inactive) in the test with Malme-3M; 1.77 µM (inactive) in the test with NCI-H23; 1.64 µM (inactive) in the test on NCI-H522; 1.02 µM (active) in the test with RXF 393; 1.69 µM (inactive) in the test with SF-268; 1.88 µM (inactive) in the test with SK-MEL-28. Also, the GI50 was 1.82 µM (inactive) in the test with SK-MEL-5, 1.15 µM (inactive) in the test with SK-OV-3, 1.68 µM (inactive) with SN12C and 1.73 µM (inactive) in the test on UO-31.
For the compound `Cc1c(N2CCOCC2)nc2ccc(Cl)cc2c1-c1ccccc1`, the GI50 in the test with A498 is > 100 µM (inactive); with A549, 43.8 µM (inactive); in the test with CCRF-CEM, 26.7 µM (inactive); in the test on COLO 205, > 100 µM (inactive); in the test on DMS-114, 70.1 µM (inactive); in the test on HCT-15, 42.6 µM. The GI50 is 34 µM (inactive) in the test with HL-60; 60.5 µM (inactive) with Malme-3M; 69.7 µM (inactive) in the test on NCI-H23; 30.8 µM (inactive) in the test with NCI-H522; 62.2 µM (inactive) in the test on RXF 393; 80.2 µM (inactive) with SF-268. The GI50 is > 100 µM (inactive) in the test with SK-MEL-28; 21 µM (inactive) with SK-MEL-5; > 100 µM (inactive) in the test on SK-OV-3; 47.8 µM (inactive) with SN12C; 34.4 µM (inactive) in the test with SR; > 100 µM (inactive) in the test on UO-31.
For the compound `Cc1c(C(=O)CSc2nc3cc([N+](=O)[O-])ccc3[nH]2)c(=O)n(-c2ccccc2)n1C`, the GI50 is > 100 µM (inactive) in the test with A498; > 100 µM (inactive) in the test on A549; > 100 µM (inactive) in the test on CCRF-CEM; > 100 µM (inactive) in the test on COLO 205; > 100 µM (inactive) in the test on DMS-114; > 100 µM with HCT-15. The GI50 with HL-60 is > 100 µM (inactive); in the test on Malme-3M, 49.7 µM (inactive); with NCI-H23, > 100 µM (inactive); in the test on NCI-H522 it was > 100 µM (inactive); in the test with SF-268, > 100 µM (inactive); in the test with SK-MEL-28 it was > 100 µM (inactive). The GI50 in the test with SK-MEL-5, with SK-OV-3, in the test on SN12C, in the test with SR and in the test on UO-31 was > 100 µM (inactive) throughout.
Take `O=C1CC2(C[C@@H]3CCCCCCCCC[C@@H](C3)C2)N1` (stereo not given in full): the GI50 was 16.7 µM (inactive) in the test with A498; 21.8 µM (inactive) in the test on A549; 17.5 µM (inactive) in the test with CCRF-CEM; 16.7 µM (inactive) with COLO 205; 16.7 µM (inactive) in the test on DMS-114; 17.7 µM in the test on HCT-15. The GI50 is 15.1 µM (inactive) with HL-60; 11.8 µM (inactive) in the test on Malme-3M; 16.7 µM (inactive) in the test with NCI-H23; 16.3 µM (inactive) in the test on NCI-H522; 16.2 µM (inactive) in the test on RXF 393; 20.4 µM (inactive) in the test with SF-268. Moreover, the GI50 in the test with SK-MEL-28 is 17.2 µM (inactive); with SK-MEL-5, 16.4 µM (inactive); in the test on SK-OV-3, 15.1 µM (inactive); with SN12C, 16.8 µM (inactive); in the test on SR, 10.8 µM (inactive); in the test with UO-31, 14.4 µM (inactive).
In the case of `COc1cc(NCC(C#N)C#N)ccc1/N=N/c1ccc([N+](=O)[O-])cc1`, the GI50 in the test on A498 is > 100 µM (inactive); in the test with A549, > 100 µM (inactive); in the test on CCRF-CEM it was > 100 µM (inactive); with COLO 205, > 100 µM (inactive); in the test with DMS-114, 65.2 µM (inactive); in the test on HCT-15, > 100 µM. For the same compound, the GI50 in the test with Malme-3M is > 100 µM (inactive); with NCI-H23, > 100 µM (inactive); in the test with NCI-H522, 46.5 µM (inactive); in the test on RXF 393 it was > 100 µM (inactive); with SF-268, > 100 µM (inactive); in the test on SK-MEL-28 it was > 100 µM (inactive). Moreover, the GI50 in the test on SK-MEL-5 was > 100 µM (inactive); with SK-OV-3 it was > 100 µM (inactive); in the test with SN12C, > 100 µM (inactive); with SR it was 49.5 µM (inactive); in the test on UO-31, > 100 µM (inactive).
As for `O=C(CC1C(=O)Nc2ccccc2S1(=O)=O)Nc1cccc(Cl)c1` (stereo not given), the GI50 is 18.9 µM (inactive) in the test with A498; 20 µM (inactive) in the test with A549; 22.3 µM (inactive) in the test on CCRF-CEM; 16.1 µM (inactive) with DMS-114; 15.5 µM with HCT-15; 18.5 µM (inactive) with HL-60. The GI50 in the test with Malme-3M is 23.7 µM (inactive); with NCI-H23, 18.9 µM (inactive); in the test with NCI-H522, 16.9 µM (inactive); in the test on RXF 393 it was 16.3 µM (inactive); with SF-268 it was 16.2 µM (inactive); in the test with SK-MEL-28, 20.1 µM (inactive). In addition, the GI50 was 19.1 µM (inactive) with SK-MEL-5, 15.7 µM (inactive) in the test on SN12C, 18.2 µM (inactive) with SR and 16.6 µM (inactive) in the test with UO-31.
In the case of `CCCOP1(=O)C=CC(Cl)=C(C)C1` (stereo not given), the GI50 is 82.8 µM (inactive) in the test on A498; > 54.3 µM (inactive) with A549; 11.9 µM (inactive) in the test on CCRF-CEM; 18.4 µM (inactive) in the test with COLO 205; 25.4 µM (inactive) with DMS-114; 16.8 µM in the test with HCT-15. The GI50 in the test on HL-60 was 7.53 µM (inactive); in the test on Malme-3M, 21 µM (inactive); with NCI-H23, 30.8 µM (inactive); with NCI-H522, 15.9 µM (inactive); in the test on RXF 393, 16 µM (inactive); in the test on SF-268, 46.6 µM (inactive). For the same compound, the GI50 in the test with SK-MEL-28 is 19.3 µM (inactive); in the test with SK-MEL-5, 45.6 µM (inactive); in the test with SK-OV-3, > 100 µM (inactive); with SN12C, 69.5 µM (inactive); with UO-31, 81.7 µM (inactive).
For the compound `CCOc1ccc(/C=C/C(=O)c2sc(NNC(C)=O)nc2C)cc1`, the GI50 with A498 is > 100 µM (inactive); with A549, > 100 µM (inactive); with CCRF-CEM, > 100 µM (inactive); with COLO 205, > 100 µM (inactive); with DMS-114 it was > 100 µM (inactive); in the test on HCT-15, > 100 µM. The GI50 with HL-60, in the test on Malme-3M, in the test with NCI-H23, with NCI-H522, with RXF 393 and with SF-268 was > 100 µM (inactive) in each case. For the same compound, the GI50 in the test on SK-MEL-28, in the test with SK-MEL-5, with SK-OV-3, with SN12C and in the test with UO-31 was > 100 µM (inactive) each time.
As for `O=C(O)CCSC(=O)Nc1ccc(/N=N/c2ccccc2)cc1`, the GI50 with A498 is 69.5 µM (inactive); in the test on A549, > 100 µM (inactive); with CCRF-CEM, 62.5 µM (inactive); in the test on COLO 205, > 100 µM (inactive); in the test on DMS-114, 61.8 µM (inactive); in the test on HCT-15, > 100 µM. The GI50 with HL-60 was 36.5 µM (inactive); with Malme-3M, > 100 µM (inactive); with NCI-H23, > 100 µM (inactive); in the test with RXF 393 it was > 100 µM (inactive); with SF-268 it was > 100 µM (inactive); in the test on SK-MEL-28, > 100 µM (inactive). The GI50 is > 100 µM (inactive) with SK-MEL-5; > 100 µM (inactive) in the test with SK-OV-3; > 100 µM (inactive) in the test with SN12C; 37.9 µM (inactive) in the test with SR; 55.3 µM (inactive) with UO-31.
